Measured values as given in patent US20240317754A1 (priority 2020, published 2024).
Like-named read-outs stand apart in the source and are kept apart here.

How the values were obtained:
[1] = tested on: SARS-CoV-2 variant B.1.351; test: microbe, parasite or virus in culture; format: cell-based
[2] = tested on: SARS-CoV-2 variant B.1.617.2; test: microbe, parasite or virus in culture; format: cell-based
SARS-CoV-2 variants = test: microbe, parasite or virus in culture; format: cell-based
[3] = tested on: SARS-CoV-2 B.1.617.2 variants; details: in vivo
[4] = Severe acute respiratory syndrome coronavirus 2, Vero C1008, 48 h

SMILES	IC50 [1, 4] [nM]	IC50 [2, 4] [nM]	also measured
CC(C)(C)C(=O)OC[C@H]1O[C@@](C#N)(c2ccc3c(N)ncnn23)[C@H](O)[C@@H]1O [ATV018, ((2R,3S,4R,5R)-5-(4-aminopyrrolo[2,1-f][1,2,4]triazin-7-yl)-5-cyano-3,4-dihydroxytetrahydrofuran-2-yl)methyl pivalate]	785	229	–
N#C[C@@]1(c2ccc3c(N)ncnn23)O[C@H](COC(=O)C2CCCCC2)[C@@H](O)[C@H]1O [ATV014, ((2R,3S,4R,5R)-5-(4-aminopyrrolo[2,1-f][1,2,4]triazin-7-yl)-5-cyano-3,4-dihydroxytetrahydrofuran-2-yl)methyl cyclohexanecarboxylate]	–	–	IC50 [1]: 248 nM; IC50 [2]: 210 nM; IC50 (SARS-CoV-2 variants; Severe acute respiratory syndrome coronavirus 2): < 340 nM; anti-SARS-CoV-2 activity relative to GS-441524 (SARS-CoV-2 variants; summary statement, in words): twice that of GS-441524
N#C[C@@]1(c2ccc3c(N)ncnn23)O[C@H](CO)[C@@H](O)[C@H]1O [GS-441524, reference compound]	–	–	IC50 [1]: 1780 nM; IC50 [2]: 1640 nM
CC(C)CC(=O)OC[C@H]1O[C@@](C#N)(c2ccc3c(N)ncnn23)[C@H](O)[C@@H]1O [ATV017, ((2R,3S,4R,5R)-5-(4-aminopyrrolo[2,1-f][1,2,4]triazin-7-yl)-5-cyano-3,4-dihydroxytetrahydrofuran-2-yl)methyl 3-methylbutanoate]	2850	428	–
N#C[C@@]1(c2ccc3c(N)ncnn23)O[C@H](COC(=O)c2ccccc2)[C@@H](O)[C@H]1O [ATV013, ((2R,3S,4R,5R)-5-(4-aminopyrrolo[2,1-f][1,2,4]triazin-7-yl)-5-cyano-3,4-dihydroxytetrahydrofuran-2-yl)methyl benzoate]	2430	965	–
CCCC(=O)OC[C@H]1O[C@@](C#N)(c2ccc3c(N)ncnn23)[C@H](O)[C@@H]1O [ATV009, ((2R,3S,4R,5R)-5-(4-aminopyrrolo[2,1-f][1,2,4]triazin-7-yl)-5-cyano-3,4-dihydroxytetrahydrofuran-2-yl)methyl butyrate]	1380	492	–
CCC(CC)C(=O)OC[C@H]1O[C@@](C#N)(c2ccc3c(N)ncnn23)[C@H](O)[C@@H]1O [ATV011, ((2R,3S,4R,5R)-5-(4-aminopyrrolo[2,1-f][1,2,4]triazin-7-yl)-5-cyano-3,4-dihydroxytetrahydrofuran-2-yl)methyl 2-ethylbutanoate]	2300	408	–
CCCCCCCCC(=O)OC[C@H]1O[C@@](C#N)(c2ccc3c(N)ncnn23)[C@H](O)[C@@H]1O [ATV010, ((2R,3S,4R,5R)-5-(4-aminopyrrolo[2,1-f][1,2,4]triazin-7-yl)-5-cyano-3,4-dihydroxytetrahydrofuran-2-yl)methyl nonanoate]	1000	455	–
CC(C)C(=O)OC[C@H]1O[C@@](C#N)(c2ccc3c(N)ncnn23)[C@H](O)[C@@H]1O [ATV006, ((2R,3S,4R,5R)-5-(4-aminopyrrolo[2,1-f][1,2,4]triazin-7-yl)-5-cyano-3,4-dihydroxytetrahydrofuran-2-yl)methyl isobutyrate]	1130	348	amount of viral genome (N gene) in lung tissue [3]: significantly lower than that in the control group; amount of viral subgenome (subgenomic N) in lung tissue [3]: significantly lower than that in the control group
